Measured values reported in BindingDB's records for doi:10.1016/j.bmcl.2005.05.127 (Wyeth Research, 2005).

What was measured:
[1] = Inhibitory concentration against human p21 […] cell (p21+/+) proliferation
[2] = Inhibitory concentration against human p21 deficient cell (p21-/-) proliferation
[3] = Inhibitory concentration against human p21 proficient cell (p21+/+) proliferation

SMILES | IC50 [1] [µM] | IC50 [2] [µM] | IC50 [3] [µM]
O=C(c1cccs1)c1cnn2c(-c3cccc(NC(=O)C4CC4)c3)ccnc12 | 12 |  | 
COc1cc(-c2nc3sc4c(c3c(=O)[nH]2)CCCC4)cc(OC)c1OC | > 20 |  | 
COc1ccc(-c2nc3sc4c(c3c(=O)[nH]2)CCCC4)cc1OC |  | > 20 | > 20
